Laboratory results published in patent US7803769B2 (priority 2006, dated 2010).
“Also recorded” adds a separate entry of the source.

Experiments:
[1] = tested on: CD40L on CD4+ T cells in human whole blood; assay type: cell-based
[2] = tested on: IL-2R on CD4+ T cells in human whole blood; assay type: cell-based
[3] = tested on: thapsigargin-induced IFN-g production in human whole blood; assay type: cell-based
[4] = tested on: thapsigargin-induced IL-2 production in human whole blood
[5] = tested on: IL-2 production from αCD3 and αCD28 antibody stimulated human PBMCs; assay type: cell-based
[6] = tested on: IFNγ production from PMA and αCD3 antibody stimulated human PBMCs; assay type: cell-based
[7] = tested on: IL-2 production from PMA and αCD3 antibody stimulated human PBMCs; assay type: cell-based
[8] = target: HEK 293 cells overexpressing human Kv1.3 (Homo sapiens, UniProt P22001); test: Immunohistochemistry binding to HEK 293 cells overexpressing human Kv1.3; conditions: 5 μg/ml
Chain of HEK 293 cells overexpressing human Kv1.3 (P22001 whole entry): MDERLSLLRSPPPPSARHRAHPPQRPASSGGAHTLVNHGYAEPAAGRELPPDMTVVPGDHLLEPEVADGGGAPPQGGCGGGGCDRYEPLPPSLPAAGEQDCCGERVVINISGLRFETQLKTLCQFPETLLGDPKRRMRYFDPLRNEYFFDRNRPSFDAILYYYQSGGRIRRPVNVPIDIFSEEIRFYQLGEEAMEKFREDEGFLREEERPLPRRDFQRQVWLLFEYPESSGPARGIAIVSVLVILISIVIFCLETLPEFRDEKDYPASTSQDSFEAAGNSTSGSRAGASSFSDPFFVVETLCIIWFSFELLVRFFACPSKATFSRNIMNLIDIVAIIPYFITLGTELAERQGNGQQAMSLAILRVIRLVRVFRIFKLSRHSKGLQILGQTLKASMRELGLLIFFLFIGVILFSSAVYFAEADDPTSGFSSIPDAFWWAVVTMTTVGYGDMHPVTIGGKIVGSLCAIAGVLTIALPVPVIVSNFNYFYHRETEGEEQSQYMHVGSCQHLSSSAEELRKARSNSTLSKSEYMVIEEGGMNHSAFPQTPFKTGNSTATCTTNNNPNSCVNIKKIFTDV
Method: Immunohistochemistry analysis of Fc-L10-ShK[1-35] binding to HEK 293 cells overexpressing human Kv1.3. HEK 293 cells overexpressing human Kv1.3 (HEK Kv1.3) were obtained from BioFocus plc (Cambridge, UK) and maintained per manufacturer's recommendation. The parental HEK 293 cell line was used as a control. Cells were plated on Poly-D-Lysine 24 well plates (#35-4414; Becton-Dickinson, Bedford, Mass.) and allowed to grow to approximately 70% confluence. HEK KV1.3 were plated at 0.5×10e5 cells/well in 1 ml/well of medium. HEK 293 cells were plated at a density of 1.5×10e5 cells/well in 1 ml/well of medium. Before staining, cells were fixed with formalin (Sigma HT50-1-1 Formalin solution, diluted 1:1 with PBS/0.5% BSA before use) by removing cell growth medium, adding 0.2 ml/well formalin solution and incubating at room temperature for ten minutes. Cells were stained by incubating with 0.2 ml/well of 5 μg/ml Fc-L10-ShK[1-35] in PBS/BSA for 30′ at room temperature. Fc-L10-ShK[1-35] was aspirated and then the cells were washed one time with PBS/0.5% BSA. Detection antibody (Goat F(ab)2 anti-human IgG-phycoerythrin; Southern Biotech Associates, Birmingham, Ala.) was added to the wells at 5 μg/ml in PBS/0.5% BSA and incubated for 30′ at room temperature. Wash cells once with PBS/0.5% BSA and examine using confocal microscopy (LSM 510 Meta Confocal Microscope; Carl Zeiss AG, Germany). […]

[9] = target: fixed HEK 293 cells stably transfected with human Kv1.3 (Homo sapiens, UniProt P22001); test: Whole cell immunoassay (ELISA) on fixed HEK 293 cells overexpressing Kv1.3; assay type: binding
Chain of fixed HEK 293 cells stably transfected with human Kv1.3 (P22001 whole entry): as above
Method: Our peptibody reagent can be a useful and convenient tool for monitoring Kv1.3 channel expression in patients and have utility in diagnostic applications. The procedure shown in FIG. 34A and FIG. 34B follows.
FIG. 34A. A whole cell immunoassay was performed to show binding of intact Fc-L10-ShK[1-35] to Kv1.3 transfected HEK 293 cells (BioFocus plc, Cambridge, UK). Parent HEK 293 cells or HEK Kv1.3 cells were plated at 3×10e4 cells/well in poly-D-Lysine coated ninety-six well plates (#35-4461; Becton-Dickinson, Bedford, Mass.). Cells were fixed with formalin (Sigma HT50-1-1 Formalin solution, diluted 1:1 with PBS/0.5% BSA before use) by removing cell growth medium, adding 0.2 ml/well formalin solution and incubating at room temperature for 25 minutes and then washing one time with 100 μl/well of PBS/0.5% BSA. Wells were blocked by addition of 0.3 ml/well of BSA blocker (50-61-00; KPL 10% BSA Diluent/Blocking Solution, diluted 1:1 with PBS; KPL, Gaithersburg, Md.) followed by incubation at room temperature, with shaking, for 3 hr. Plates were washed 2 times with 1×KP Wash Buffer (50-63-00; KPL). […] Absorbance was read at 450 nm on a Molecular Devices SpectroMax 340 (Sunnyvale, Calif.).
FIG. 34B. […] Absorbances were read at 405 nm after stopping reactions by addition of 0.1 ml/well of 1% SDS.

human Kv1.3 channel = human Kv1.3 channel (Homo sapiens, UniProt P22001); assay type: cell-based
Chain of human Kv1.3 channel (P22001 whole entry): as above

[10] = tested on: T cell proliferation in human PBMCs; test: T cell proliferation (3H-thymidine incorporation) in anti-CD3/anti-CD28 stimulated human PBMCs; assay type: cell-based; conditions: two normal donors
Text: Inhibition of T cell proliferation following anti-CD3 and anti-CD28 antibody stimulation of PBMCs. PBMC's were previously isolated from normal human donor Leukophoresis packs, purified by density gradient centrifugation (Ficoll Hypaque), cryopreserved in CPZ Cryopreservation Medium Complete (INCELL, MCPZF-100 plus 10% DMSO final). PBMC's were thawed (95% viability), washed, and seeded at 2×10^5 cells per well in culture medium (RPMI medium 1640; GIBCO) supplemented with 10% fetal calf serum, 100 U/ml penicillin, […] streptomycin, 2 mM L-glutamine, 100 μM non-essential amino acids, and 20 μM 2-ME) in 96-well flat-bottom tissue culture plates. Cells were pre-incubated with either anti-human CD32 (FcyRII) blocking antibody (per manufacturers instructions EASY SEP Human Biotin Selection Kit #18553, StemCell Technologies Vancouver, BC) or Fc-L10-ShK (100 nM-0.001 nM final) for 45 min. Fc-L10-ShK (100 nM-0.001 nM final) was then added to the cells containing anti-human CD32 blocking antibody while medium was added to the cells containing Fc-L10-ShK. Both sets were incubated for an additional 45 min before stimulating for 48 hr with aCD3/aCD28 (0.2 ng/ml and 100 ng/ml, respectively). Final assay volume was 200 ul. […] Cells were then harvested onto glass fiber filters and radioactivity was measured in a B-scintillation counter.

[11] = tested on: IFNγ production from αCD3 and αCD28 antibody stimulated human PBMCs; assay type: cell-based
human Kv1.1 = target: T1, human Kv1.1 (Homo sapiens, UniProt Q09470); assay type: cell-based
T1 construct: expressed in transfected cells; host or cells: HEK293
T1 sequence (Q09470 whole entry): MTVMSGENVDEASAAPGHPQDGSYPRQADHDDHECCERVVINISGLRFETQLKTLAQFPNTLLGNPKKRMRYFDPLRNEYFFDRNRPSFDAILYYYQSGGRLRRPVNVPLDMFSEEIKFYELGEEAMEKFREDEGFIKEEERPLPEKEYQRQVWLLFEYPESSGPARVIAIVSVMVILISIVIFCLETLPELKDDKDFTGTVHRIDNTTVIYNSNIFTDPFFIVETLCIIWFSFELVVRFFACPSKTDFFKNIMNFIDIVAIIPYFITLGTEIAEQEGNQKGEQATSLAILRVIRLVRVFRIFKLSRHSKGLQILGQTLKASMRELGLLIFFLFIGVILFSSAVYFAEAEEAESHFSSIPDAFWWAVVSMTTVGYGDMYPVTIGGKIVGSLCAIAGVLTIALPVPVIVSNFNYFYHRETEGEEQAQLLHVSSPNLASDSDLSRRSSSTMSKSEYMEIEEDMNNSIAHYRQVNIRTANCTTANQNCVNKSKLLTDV

## IbTx: BKCa channel inhibitor iberiotoxin, purchased from Bachem (QFTDVDCSVSKECWSVCKDLFGVDRGKCMGKKCRCYQ; Definition of Artificial Sequence: Synthetic peptide) [reference compound]
[1]
  thapsigargin-induced upregulation of CD40L on T cells (in words): no significant activity
[2]
  thapsigargin-induced upregulation of IL-2R on T cells (in words): no significant activity
[3]
  thapsigargin-induced IFN-g production in human whole blood (in words): no significant activity
[4]
  thapsigargin-induced IL-2 production in human whole blood (in words): no significant activity

## Fc-L10-ShK[1-35]: Fc region of human IgG1 fused in-frame to L10 linker and a monomer of ShK[1-35]
[1]
  thapsigargin-induced upregulation of CD40L on T cells (in words): suppressed
[5]
  inhibition of IL-2 production (in words): nearly complete inhibition
[2]
  thapsigargin-induced upregulation of IL-2R on T cells (in words): suppressed
[6]
  inhibition of IFNγ production (in words): complete inhibition of the response
[7]
  inhibition of IL-2 production (in words): complete inhibition of the response
[8]
  binding to Kv1.3 overexpressing HEK 293 cells (staining): binds to Kv1.3 overexpressing HEK 293 cells but shows little binding to untransfected cells
[9]
  binding to fixed cells that overexpress Kv1.3 (ELISA): dose-dependent increase in the peptibody binding to fixed cells that overexpress Kv1.3
Human Kv1.3 channel
  block of human Kv1.3 current (in words): potently blocked human Kv1.3
[10]
  inhibition of T cell proliferation (in words): potently inhibits proliferation of T cells in a dose-dependent manner
[11]
  inhibition of IFNg production (in words): nearly complete inhibition

## Fc-L10-ShK[2-35]: human IgG1 Fc fused via 10 amino acid linker to ShK[2-35]
[1]
  thapsigargin-induced upregulation of CD40L on T cells (in words): blocked
[2]
  thapsigargin-induced upregulation of IL-2R on T cells (in words): blocked
[3]
  thapsigargin-induced IFN-g production in human whole blood (in words): suppressed; also recorded: blocked
Human Kv1.3 channel
  block of human Kv1.3 current (in words): potently blocks human Kv1.3 current

## Fc-L10-OSK1[E16K,K20D]: Fc-L10-OSK1 with E16K and K20D substitutions
Human Kv1.1
  blocking activity against Kv1.1 (in words): removed the blocking activity against Kv1.1
Human Kv1.3 channel
  difference in Kv1.3 potency compared to Fc-L10-OSK1: 1.3 fold
  fold less potent than the synthetic OSK1 toxin peptide (Kv1.3): approximately 6 fold

B1: L2-6H-L3-CH2-L10-OsK1 (1-38) (protein)
chain: MGGHHHHHHGGGPSVFLFPPKPKDTLMISRTPEVTCVVVDVSHEDPEVKFNWYVDGVEVHNAKTKPREEQYNSTYRVVSVLTVLHQDWLNGKEYKCKVSNKALPAPIEKTISGGGGSGGGGSGVIINVKCKISRQCLEPCKKAGMRFGKCMNGKCHCTPK
[3]; read-out: WB/IFNg (IC50)
  IC50: 55.2 nM
[4]; read-out: WB/IL-2 (IC50)
  IC50: 38.5 nM

B2: FcLoop-L2-ShK-L2: ShK inserted into the human IgG1 Fc-loop with 2-Gly linkers on both sides (protein)
chain: MDKTHTCPPCPAPELLGGPSVFLFPPKPKDTLMISRTPEVTCVVVDVSHEDPEVKFNWYVDGVEVHNAKTKPREEQYNSTYRVVSVLTVLHQDWLNGKEYKCKVSNKALPAPIEKTISKAKGQPREPQVYTLPPSRDELGGRSCIDTIPKSRCTAFQCKHSMKYRLSFCRKTCGTCGGTKNQVSLTCLVKGFYPSDIAVEWESNGQPENNYKTTPPVLDSDGSFFLYSKLTVDKSRWQQGNVFSCSVMHEALHNHYTQKSLSLSPGK
modifications: Definition of Artificial Sequence: Synthetic protein
[4]
  whole blood cytokine response (IL-2 and IFNg), blockade in words: potent blockade of the whole blood cytokine response in this assay, with IC50 values in the pM range
